Earlier results in article PMC9877316, “Identification of a novel P2X7 antagonist using structure-based virtual screening” (Frontiers in Pharmacology, 2023).

Legend:
Parameters in all cases: method as in Villoutreix et al., 2011
[1] = system: mast cell degranulation; conditions: ref Villoutreix et al., 2011; read-out: IC50 for inhibiting mast cell degranulation; cited from earlier work
[2] = system: tyrosine kinase Syk; conditions: antibody displacement assay; ref Villoutreix et al., 2011; cited from earlier work
[3] = biological target: tyrosine kinase Syk; conditions: ref Villoutreix et al., 2011; cited from earlier work

CCOC(=O)C1=C(C)NC2=C(C(=O)c3ccccc32)C1c1cc(Br)ccc1OCC(=O)O (stereo not drawn) [Chembridge ID 6422575, (4-bromo-2-[3-(ethoxycarbonyl)-2-methyl-5-oxo-4,5-dihydro-1H-indeno[1,2-b]pyridin-4-yl]phenoxy) acetic acid]
IC50 [1]: ≥ 20 µM
inhibition of antibody binding [2]: 81%
Kd [3]: 6.2 µM
